Source: patent US10231954B2, “Neurodegenerative therapies” (LYTIX BIOPHARMA AS, priority 2014, dated 2019)

What was measured:
Assay type in all cases: biochemical
PRK2 = PRK2 (Homo sapiens, UniProt Q16513); assay: Kinase profiling PRK2; conditions: for residual kinase activity, PRK2: 100 micromolar inhibitor concentration, 100 is no change
From the text: (§1) Any value less that 25 is considered to be highly significant inhibition.

IRAK4 = molecular target: T1, IRAK4 (Homo sapiens, UniProt Q9NWZ3); assay: Kinase profiling IRAK4; conditions: for residual kinase activity, IRAK4: 100 micromolar inhibitor concentration, 100 is no change
T1 sequence (Q9NWZ3 1-460): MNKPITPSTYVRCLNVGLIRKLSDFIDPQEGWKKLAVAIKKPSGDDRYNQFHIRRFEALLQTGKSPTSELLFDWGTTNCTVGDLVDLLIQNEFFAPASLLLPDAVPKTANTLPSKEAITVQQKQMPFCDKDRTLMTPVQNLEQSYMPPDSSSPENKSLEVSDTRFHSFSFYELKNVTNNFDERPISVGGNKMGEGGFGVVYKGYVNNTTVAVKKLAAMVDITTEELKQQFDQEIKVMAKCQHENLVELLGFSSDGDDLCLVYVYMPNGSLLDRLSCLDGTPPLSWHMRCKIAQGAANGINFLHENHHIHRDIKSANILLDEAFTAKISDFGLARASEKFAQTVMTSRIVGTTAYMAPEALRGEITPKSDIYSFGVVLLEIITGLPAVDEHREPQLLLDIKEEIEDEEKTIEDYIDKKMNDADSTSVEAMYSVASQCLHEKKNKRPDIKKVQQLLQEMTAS
From the text: as §1

MARK3 = MARK3 (Homo sapiens, UniProt P27448); assay: Kinase profiling MARK3; conditions: for residual kinase activity, MARK3: 100 micromolar inhibitor concentration, 100 is no change
From the text: as §1

VEG-FR = assay: Kinase profiling VEG-FR; conditions: 100 micromolar inhibitor concentration; 100 is no change
From the text: as §1

EPH-A2 = EPH-A2 (Homo sapiens, UniProt P29317); assay: Kinase profiling EPH-A2; conditions: for residual kinase activity, EPH-A2: 100 micromolar inhibitor concentration, 100 is no change
From the text: as §1

MST2 = molecular target: T2, MST2 (Homo sapiens, UniProt Q13188); assay: Kinase profiling MST2; conditions: for residual kinase activity, MST2: 100 micromolar inhibitor concentration, 100 is no change
T2 sequence (Q13188 1-491): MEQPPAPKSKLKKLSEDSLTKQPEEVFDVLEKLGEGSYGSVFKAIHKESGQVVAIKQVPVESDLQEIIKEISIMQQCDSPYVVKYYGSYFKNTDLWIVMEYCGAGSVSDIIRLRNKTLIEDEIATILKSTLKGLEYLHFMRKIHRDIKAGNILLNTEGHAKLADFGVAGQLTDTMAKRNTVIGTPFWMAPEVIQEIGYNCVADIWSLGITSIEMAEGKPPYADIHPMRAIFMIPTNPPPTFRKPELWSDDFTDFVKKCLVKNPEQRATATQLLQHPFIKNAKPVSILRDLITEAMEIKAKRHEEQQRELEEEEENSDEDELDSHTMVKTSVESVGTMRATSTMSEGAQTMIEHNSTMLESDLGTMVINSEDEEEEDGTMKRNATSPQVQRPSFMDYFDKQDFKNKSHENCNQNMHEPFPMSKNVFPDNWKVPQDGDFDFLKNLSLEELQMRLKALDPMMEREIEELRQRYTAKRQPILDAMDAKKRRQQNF
From the text: as §1

TAK1 = molecular target: T3, TAK1 (Homo sapiens, UniProt O43318); assay: Kinase profiling TAK1; conditions: for residual kinase activity, TAK1: 100 micromolar inhibitor concentration, 100 is no change
T3 sequence (O43318 1-303 limits assumed): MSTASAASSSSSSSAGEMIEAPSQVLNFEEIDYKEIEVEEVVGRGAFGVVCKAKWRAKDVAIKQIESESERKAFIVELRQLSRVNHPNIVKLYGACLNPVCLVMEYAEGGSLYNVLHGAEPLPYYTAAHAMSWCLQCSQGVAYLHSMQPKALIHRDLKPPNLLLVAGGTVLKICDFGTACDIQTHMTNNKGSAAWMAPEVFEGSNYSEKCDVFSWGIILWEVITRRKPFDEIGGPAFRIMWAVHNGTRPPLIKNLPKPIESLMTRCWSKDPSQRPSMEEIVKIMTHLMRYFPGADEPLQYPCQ
T3 sequence (Q15750 437-504 partner limits assumed): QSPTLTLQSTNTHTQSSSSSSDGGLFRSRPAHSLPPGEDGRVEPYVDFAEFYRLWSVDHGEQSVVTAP
From the text: as §1

SmMLCK = SmMLCK (Homo sapiens, UniProt Q15746); assay: Kinase profiling SmMLCK; conditions: 100 micromolar inhibitor concentration, 100 is no change
DYRK1A = DYRK1A (Homo sapiens, UniProt Q13627); assay: DYRK 1A assay (kinase profiling); conditions: for residual kinase activity, DYRK1A: 100 micromolar inhibitor concentration, 100 is no change
Method: Assays are stopped by addition of 5 μl of 0.5 M (3%) orthophosphoric acid and then harvested onto P81 Unifilter plates with a wash buffer of 50 mM orthophosphoric acid.
as §1

PLK1 = PLK1 (Homo sapiens, UniProt P53350); assay: Kinase profiling PLK1; conditions: for residual kinase activity, PLK1: 100 micromolar inhibitor concentration, 100 is no change
From the text: as §1

PKCγ = PKCγ (Homo sapiens, UniProt P05129); assay: Kinase profiling PKCγ; conditions: for residual kinase activity, PKCγ: 100 micromolar inhibitor concentration, 100 is no change
From the text: as §1

CHK2 = CHK2 (Homo sapiens, UniProt O96017); assay: Kinase profiling CHK2; conditions: for residual kinase activity, CHK2: 100 micromolar inhibitor concentration, 100 is no change
From the text: as §1

HIPK2 = HIPK2 (Homo sapiens, UniProt Q9H2X6); assay: Kinase profiling HIPK2; conditions: for residual kinase activity, HIPK2: 100 micromolar inhibitor concentration, 100 is no change
From the text: as §1

PKBb = PKBb (Homo sapiens, UniProt P31751); assay: Kinase profiling PKBb; conditions: for residual kinase activity, PKBb: 100 micromolar inhibitor concentration, 100 is no change
From the text: as §1

p38g MAPK = molecular target: T4, p38g MAPK (Homo sapiens, UniProt P53778); assay: Kinase profiling p38g MAPK; conditions: for residual kinase activity, p38g MAPK: 100 micromolar inhibitor concentration, 100 is no change
T4 sequence (P53778 1-367): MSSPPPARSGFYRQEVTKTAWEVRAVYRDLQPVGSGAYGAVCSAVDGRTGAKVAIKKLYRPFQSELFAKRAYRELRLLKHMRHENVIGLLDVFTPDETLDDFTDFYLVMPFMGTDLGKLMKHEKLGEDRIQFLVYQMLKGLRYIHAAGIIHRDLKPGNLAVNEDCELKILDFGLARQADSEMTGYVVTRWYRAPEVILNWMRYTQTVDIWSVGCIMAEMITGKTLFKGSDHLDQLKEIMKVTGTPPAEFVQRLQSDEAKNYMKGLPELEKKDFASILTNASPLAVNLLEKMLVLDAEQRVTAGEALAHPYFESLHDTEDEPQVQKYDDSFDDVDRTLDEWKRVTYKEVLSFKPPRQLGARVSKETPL
From the text: as §1

RIPK2 = RIPK2 (Homo sapiens, UniProt O43353); assay: Kinase profiling RIPK2; conditions: for residual kinase activity, RIPK2: 100 micromolar inhibitor concentration, 100 is no change
From the text: as §1

ERK1 = ERK1 (Homo sapiens, UniProt P27361); assay: Kinase profiling ERK1; conditions: for residual kinase activity, ERK1: 100 micromolar inhibitor concentration, 100 is no change
From the text: as §1

CHK2, sequence (O96017 whole entry, species assumed): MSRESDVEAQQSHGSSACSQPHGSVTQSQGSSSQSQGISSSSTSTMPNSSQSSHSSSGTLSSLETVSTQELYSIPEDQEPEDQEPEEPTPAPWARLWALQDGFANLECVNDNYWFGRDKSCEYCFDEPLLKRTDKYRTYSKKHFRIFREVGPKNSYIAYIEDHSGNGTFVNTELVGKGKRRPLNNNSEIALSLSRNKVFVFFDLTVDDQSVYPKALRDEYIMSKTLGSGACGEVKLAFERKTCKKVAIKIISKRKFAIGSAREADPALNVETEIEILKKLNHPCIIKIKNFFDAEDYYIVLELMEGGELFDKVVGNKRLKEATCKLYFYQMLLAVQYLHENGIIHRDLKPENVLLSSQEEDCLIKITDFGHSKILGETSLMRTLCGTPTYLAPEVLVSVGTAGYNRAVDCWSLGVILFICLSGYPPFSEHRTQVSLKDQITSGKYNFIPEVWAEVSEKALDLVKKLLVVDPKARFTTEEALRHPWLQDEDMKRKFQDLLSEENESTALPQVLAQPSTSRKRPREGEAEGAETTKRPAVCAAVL
ERK1, sequence (P27361 whole entry, species assumed): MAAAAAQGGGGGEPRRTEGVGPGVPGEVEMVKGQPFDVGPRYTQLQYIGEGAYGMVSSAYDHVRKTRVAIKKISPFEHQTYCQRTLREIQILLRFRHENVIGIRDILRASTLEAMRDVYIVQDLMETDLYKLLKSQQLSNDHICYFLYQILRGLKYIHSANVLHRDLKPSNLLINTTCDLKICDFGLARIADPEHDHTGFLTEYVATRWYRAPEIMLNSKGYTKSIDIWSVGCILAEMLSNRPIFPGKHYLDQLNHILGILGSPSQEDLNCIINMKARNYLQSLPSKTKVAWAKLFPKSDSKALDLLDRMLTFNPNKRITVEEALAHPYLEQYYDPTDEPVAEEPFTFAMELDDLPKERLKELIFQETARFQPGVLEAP
PKBb, sequence (P31751 whole entry): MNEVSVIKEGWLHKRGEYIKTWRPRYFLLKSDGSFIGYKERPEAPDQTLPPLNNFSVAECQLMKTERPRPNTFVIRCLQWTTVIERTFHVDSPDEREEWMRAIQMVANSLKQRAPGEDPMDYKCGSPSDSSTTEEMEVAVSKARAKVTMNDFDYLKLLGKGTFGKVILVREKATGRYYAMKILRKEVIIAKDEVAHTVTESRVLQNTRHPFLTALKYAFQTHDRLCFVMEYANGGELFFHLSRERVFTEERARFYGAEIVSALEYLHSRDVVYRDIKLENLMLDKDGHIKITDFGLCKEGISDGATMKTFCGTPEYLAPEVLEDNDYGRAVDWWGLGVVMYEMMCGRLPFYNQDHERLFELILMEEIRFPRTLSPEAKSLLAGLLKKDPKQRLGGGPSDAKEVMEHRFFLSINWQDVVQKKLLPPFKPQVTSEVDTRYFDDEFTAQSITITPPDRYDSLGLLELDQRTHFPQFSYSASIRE
EPH-A2, sequence (P29317 24-976, species assumed): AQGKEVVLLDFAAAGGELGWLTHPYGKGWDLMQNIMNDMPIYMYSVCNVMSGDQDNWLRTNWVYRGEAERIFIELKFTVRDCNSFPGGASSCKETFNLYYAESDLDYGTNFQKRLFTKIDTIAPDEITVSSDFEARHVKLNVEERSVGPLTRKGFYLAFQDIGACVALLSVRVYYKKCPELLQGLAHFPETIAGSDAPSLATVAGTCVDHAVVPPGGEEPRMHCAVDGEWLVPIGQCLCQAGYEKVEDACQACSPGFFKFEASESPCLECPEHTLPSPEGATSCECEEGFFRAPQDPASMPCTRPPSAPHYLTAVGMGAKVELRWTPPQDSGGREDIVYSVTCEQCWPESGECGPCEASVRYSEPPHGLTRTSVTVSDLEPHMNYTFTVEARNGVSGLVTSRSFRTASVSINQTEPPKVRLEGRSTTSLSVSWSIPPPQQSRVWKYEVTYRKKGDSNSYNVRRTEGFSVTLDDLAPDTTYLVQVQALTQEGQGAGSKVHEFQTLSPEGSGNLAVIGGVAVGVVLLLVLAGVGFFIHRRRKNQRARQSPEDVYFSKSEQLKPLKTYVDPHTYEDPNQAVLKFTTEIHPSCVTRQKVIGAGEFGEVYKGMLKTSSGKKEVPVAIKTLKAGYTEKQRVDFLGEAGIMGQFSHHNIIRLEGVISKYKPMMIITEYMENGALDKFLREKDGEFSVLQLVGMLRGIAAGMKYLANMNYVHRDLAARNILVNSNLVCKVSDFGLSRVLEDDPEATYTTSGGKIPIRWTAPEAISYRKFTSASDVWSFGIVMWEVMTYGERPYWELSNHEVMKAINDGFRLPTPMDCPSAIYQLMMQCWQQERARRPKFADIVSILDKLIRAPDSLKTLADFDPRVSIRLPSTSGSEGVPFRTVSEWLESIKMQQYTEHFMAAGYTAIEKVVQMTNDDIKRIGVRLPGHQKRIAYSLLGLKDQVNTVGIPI
PRK2, sequence (Q16513 whole entry, species assumed): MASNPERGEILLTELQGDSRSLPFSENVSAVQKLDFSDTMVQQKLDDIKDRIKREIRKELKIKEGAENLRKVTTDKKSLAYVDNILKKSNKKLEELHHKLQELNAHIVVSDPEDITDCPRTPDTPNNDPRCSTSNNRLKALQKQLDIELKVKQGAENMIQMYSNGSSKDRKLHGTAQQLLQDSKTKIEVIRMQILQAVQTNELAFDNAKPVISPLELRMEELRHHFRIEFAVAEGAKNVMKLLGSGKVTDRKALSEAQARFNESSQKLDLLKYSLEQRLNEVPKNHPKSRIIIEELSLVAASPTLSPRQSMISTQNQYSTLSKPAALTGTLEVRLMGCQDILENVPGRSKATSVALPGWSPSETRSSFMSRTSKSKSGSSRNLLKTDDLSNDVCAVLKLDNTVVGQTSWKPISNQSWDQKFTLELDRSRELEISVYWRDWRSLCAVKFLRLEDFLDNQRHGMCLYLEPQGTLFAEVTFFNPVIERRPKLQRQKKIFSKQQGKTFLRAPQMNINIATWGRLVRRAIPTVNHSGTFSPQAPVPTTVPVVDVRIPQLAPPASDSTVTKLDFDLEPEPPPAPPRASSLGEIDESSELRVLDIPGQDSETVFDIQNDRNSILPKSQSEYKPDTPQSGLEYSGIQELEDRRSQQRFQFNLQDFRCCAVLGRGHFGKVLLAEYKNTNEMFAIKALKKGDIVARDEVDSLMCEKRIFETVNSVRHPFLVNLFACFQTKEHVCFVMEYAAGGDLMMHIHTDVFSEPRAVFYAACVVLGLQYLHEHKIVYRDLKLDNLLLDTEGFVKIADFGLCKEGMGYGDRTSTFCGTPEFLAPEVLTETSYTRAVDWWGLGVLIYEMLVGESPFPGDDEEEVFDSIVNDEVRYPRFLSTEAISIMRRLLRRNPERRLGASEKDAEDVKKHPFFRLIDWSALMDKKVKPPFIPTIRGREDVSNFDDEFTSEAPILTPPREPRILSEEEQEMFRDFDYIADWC
RIPK2, sequence (O43353 whole entry, species assumed): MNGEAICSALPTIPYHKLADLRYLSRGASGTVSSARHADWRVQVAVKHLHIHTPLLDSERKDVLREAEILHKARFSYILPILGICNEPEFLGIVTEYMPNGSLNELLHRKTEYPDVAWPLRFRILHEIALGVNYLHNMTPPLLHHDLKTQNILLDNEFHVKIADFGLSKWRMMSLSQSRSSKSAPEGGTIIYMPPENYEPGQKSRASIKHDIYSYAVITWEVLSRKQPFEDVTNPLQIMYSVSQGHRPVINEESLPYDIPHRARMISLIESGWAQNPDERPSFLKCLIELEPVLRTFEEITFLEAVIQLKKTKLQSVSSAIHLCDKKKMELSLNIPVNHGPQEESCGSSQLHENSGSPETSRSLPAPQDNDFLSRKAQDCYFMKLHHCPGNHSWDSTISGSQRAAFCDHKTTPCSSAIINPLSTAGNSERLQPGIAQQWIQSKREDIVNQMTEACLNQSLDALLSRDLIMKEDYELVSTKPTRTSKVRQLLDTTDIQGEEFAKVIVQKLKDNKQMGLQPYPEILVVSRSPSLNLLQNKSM
HIPK2, sequence (Q9H2X6 whole entry, species assumed): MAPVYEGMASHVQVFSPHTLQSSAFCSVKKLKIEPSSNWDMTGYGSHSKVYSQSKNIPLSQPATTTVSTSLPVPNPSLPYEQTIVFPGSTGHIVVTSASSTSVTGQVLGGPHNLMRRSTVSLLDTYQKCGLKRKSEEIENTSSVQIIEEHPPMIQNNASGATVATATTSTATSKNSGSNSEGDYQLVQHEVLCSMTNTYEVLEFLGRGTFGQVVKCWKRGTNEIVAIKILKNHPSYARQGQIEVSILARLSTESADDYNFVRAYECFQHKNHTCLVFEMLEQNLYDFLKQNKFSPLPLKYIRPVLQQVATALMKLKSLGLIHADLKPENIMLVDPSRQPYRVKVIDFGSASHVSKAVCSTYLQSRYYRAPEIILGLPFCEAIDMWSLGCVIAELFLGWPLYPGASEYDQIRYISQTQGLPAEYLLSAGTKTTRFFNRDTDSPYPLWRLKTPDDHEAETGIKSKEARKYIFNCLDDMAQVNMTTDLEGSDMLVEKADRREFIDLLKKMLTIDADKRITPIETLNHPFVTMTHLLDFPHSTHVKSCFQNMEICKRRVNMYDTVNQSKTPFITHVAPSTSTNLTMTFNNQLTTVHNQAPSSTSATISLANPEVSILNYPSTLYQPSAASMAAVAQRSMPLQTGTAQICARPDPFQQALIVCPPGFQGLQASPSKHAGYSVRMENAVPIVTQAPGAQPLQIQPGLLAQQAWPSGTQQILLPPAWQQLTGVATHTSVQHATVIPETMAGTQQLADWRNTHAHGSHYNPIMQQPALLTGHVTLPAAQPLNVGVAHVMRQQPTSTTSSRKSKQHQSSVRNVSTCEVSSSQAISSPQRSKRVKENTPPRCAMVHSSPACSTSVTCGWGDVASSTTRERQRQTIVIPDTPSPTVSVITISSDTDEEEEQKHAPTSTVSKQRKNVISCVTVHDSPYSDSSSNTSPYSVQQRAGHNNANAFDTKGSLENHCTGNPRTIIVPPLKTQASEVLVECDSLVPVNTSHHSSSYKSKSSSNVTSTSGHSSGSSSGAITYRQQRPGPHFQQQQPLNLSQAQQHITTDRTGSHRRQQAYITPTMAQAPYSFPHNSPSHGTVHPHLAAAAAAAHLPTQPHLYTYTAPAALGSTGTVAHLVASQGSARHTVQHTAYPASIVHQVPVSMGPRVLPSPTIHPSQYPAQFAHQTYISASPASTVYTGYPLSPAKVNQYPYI

SMILES | residual kinase activity, VEG-FR (VEG-FR) | residual kinase activity, PRK2 (PRK2) | residual kinase activity, PKCγ (PKCγ) | residual kinase activity, PKBb (PKBb) | residual kinase activity, p38g MAPK (p38g MAPK) | residual kinase activity, ERK1 (ERK1) | residual kinase activity, IRAK4 (IRAK4) | residual kinase activity, MARK3 (MARK3) | residual kinase activity, EPH-A2 (EPH-A2) | residual kinase activity, MST2 (MST2) | residual kinase activity, TAK1 (TAK1) | residual kinase activity, SmMLCK (SmMLCK) | residual kinase activity, DYRK1A (DYRK1A) | residual kinase activity, PLK1 (PLK1) | residual kinase activity, CHK2 (CHK2) | residual kinase activity, HIPK2 (HIPK2) | residual kinase activity, RIPK2 (RIPK2) | other results
CC(=O)Nc1nc2cc(O)ccc2s1 [Compound 01-66, N-(5-hydroxybenzo[d]thiazol-2-yl)acetamide] | 24 | – | – | – | – | – | – | – | – | – | – | – | – | – | – | – | – | remaining activity at 100 µM (PRK2; read-out: residual kinase activity, PRK2): 67%; remaining activity at 100 µM (IRAK4; read-out: residual kinase activity, IRAK4): 18%; remaining activity at 100 µM (MARK3; read-out: residual kinase activity, MARK3): 34%; remaining activity at 100 µM (EPH-A2; read-out: residual kinase activity, EPH-A2): 67%; remaining activity at 100 µM (MST2; read-out: residual kinase activity, MST2): 69%; remaining activity at 100 µM (TAK1; read-out: residual kinase activity, TAK1): 30%; remaining activity at 100 µM (SmMLCK; read-out: residual kinase activity, SmMLCK): 58%; remaining activity at 100 µM (DYRK1A; read-out: residual kinase activity, DYRK1A): 5%; remaining activity at 100 µM (PLK1; read-out: residual kinase activity, PLK1): 103%; remaining activity at 100 µM (PKCγ; read-out: residual kinase activity, PKCγ): 99%; remaining activity at 100 µM (CHK2; read-out: residual kinase activity, CHK2): 31%; remaining activity at 100 µM (HIPK2; read-out: residual kinase activity, HIPK2): 20%; remaining activity at 100 µM (PKBb; read-out: residual kinase activity, PKBb): 55%; remaining activity at 100 µM (p38g MAPK; read-out: residual kinase activity, p38g MAPK): 46%; remaining activity at 100 µM (RIPK2; read-out: residual kinase activity, RIPK2): 29%; remaining activity at 100 µM (ERK1; read-out: residual kinase activity, ERK1): 61%
COc1ccc2sc(NC(=O)c3ccc(NC(C)=O)cc3)nc2c1 [MS:LY-2-77] | – | 92 | 94 | 44 | 121 | 87 | – | – | – | – | – | – | – | – | – | – | – | –
COc1ccc2sc(NC(=O)c3cccc(NC(C)=O)c3)nc2c1 [MS:LY-2-85] | – | 66 | 80 | 22 | 80 | 86 | – | – | – | – | – | – | – | – | – | – | – | –
CC(=O)Nc1ccccc1C(=O)Nc1nc2ccc(O)cc2s1 [Compound 08-39] | – | 42 | 44 | 4 | 90 | 18 | – | – | – | – | – | – | – | – | – | – | – | –
CC(=O)Nc1cccc(C(=O)Nc2nc3ccc(O)cc3s2)c1 [Compound 03-58] | – | 36 | 86 | 80 | 64 | 84 | – | – | – | – | – | – | – | – | – | – | – | –
CC(=O)NC(C)C(=O)Nc1nc2ccc(C(F)(F)F)cc2s1 (centres unmarked) [Compound 03-80] | – | 79 | 87 | 93 | 83 | 94 | – | – | – | – | – | – | – | – | – | – | – | –
CC(=O)Nc1ccc(C(=O)Nc2nc3cc(O)ccc3s2)cc1 [MS:LY-2-87] | – | 67 | 74 | 18 | 93 | 70 | – | – | – | – | – | – | – | – | – | – | – | –
CC(=O)Nc1cccc(C(=O)Nc2nc3cc(O)ccc3s2)c1 [MS:LY-2-89] | – | 44 | 63 | 7 | 64 | 54 | – | – | – | – | – | – | – | – | – | – | – | –
COc1ccc2nc(NC(=O)c3ccccc3)sc2c1 [Compound 03-98] | 37 | 91 | – | – | – | – | 46 | 72 | 95 | 86 | 60 | 75 | 6 | 102 | 37 | 41 | 34 | –
N#Cc1ccc2nc(NC(=O)c3ccccc3)sc2c1 [Compound 03-106] | 36 | 105 | – | – | – | – | 70 | 98 | 89 | 103 | 37 | 94 | 3 | 103 | 62 | 62 | 78 | –
COC(=O)c1cccc(C(=O)Nc2nc3cc(OC)ccc3s2)c1 [Compound 03-108] | 77 | 100 | – | – | – | – | 63 | 100 | 76 | 77 | 81 | 79 | 51 | 96 | 65 | 87 | 39 | –
O=C(Nc1nc2ccc(F)cc2s1)c1ccccc1 [Compound 03-92] | 53 | 95 | – | – | – | – | 72 | 109 | 98 | 110 | 79 | 68 | 11 | 92 | 80 | 78 | 69 | –
